These results are taken from patent US8865894B2, “Oxazolidin-2-one compounds and uses thereof” (Novartis AG, priority 2012, dated 2014).

Each structure is given as a SMILES string.

T1 sequence (P42336 with tags, fused parts or gaps limits assumed): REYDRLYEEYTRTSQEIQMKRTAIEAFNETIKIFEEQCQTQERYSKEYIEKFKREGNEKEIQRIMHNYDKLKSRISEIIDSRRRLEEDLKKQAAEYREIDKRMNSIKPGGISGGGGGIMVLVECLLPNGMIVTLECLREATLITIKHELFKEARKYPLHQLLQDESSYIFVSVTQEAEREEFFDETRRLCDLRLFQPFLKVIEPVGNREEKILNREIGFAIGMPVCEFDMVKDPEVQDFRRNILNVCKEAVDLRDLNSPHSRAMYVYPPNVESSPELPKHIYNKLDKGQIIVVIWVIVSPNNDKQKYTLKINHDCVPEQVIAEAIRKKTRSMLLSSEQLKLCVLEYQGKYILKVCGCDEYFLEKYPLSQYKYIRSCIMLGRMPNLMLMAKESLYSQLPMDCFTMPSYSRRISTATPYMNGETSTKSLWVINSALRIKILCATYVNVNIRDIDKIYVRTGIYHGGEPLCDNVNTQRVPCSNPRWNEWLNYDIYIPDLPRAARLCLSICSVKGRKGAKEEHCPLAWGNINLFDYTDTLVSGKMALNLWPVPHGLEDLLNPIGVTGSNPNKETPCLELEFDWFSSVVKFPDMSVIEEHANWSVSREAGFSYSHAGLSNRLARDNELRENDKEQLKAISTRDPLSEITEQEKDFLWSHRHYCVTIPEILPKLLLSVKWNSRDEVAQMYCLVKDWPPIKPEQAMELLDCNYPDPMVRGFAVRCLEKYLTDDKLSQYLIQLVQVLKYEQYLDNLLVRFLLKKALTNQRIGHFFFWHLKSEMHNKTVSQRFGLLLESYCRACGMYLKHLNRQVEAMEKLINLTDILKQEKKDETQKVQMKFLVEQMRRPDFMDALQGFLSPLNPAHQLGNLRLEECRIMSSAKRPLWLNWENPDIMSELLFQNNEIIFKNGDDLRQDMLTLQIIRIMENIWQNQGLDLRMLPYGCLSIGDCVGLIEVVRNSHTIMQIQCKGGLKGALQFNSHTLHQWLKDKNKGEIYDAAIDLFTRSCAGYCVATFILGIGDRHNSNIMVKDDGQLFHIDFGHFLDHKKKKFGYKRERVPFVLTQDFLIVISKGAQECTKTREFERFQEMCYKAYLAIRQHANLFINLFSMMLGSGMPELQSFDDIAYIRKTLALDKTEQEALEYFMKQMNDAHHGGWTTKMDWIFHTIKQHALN

One experiment concerns the target T1, human PI3Kα (Homo sapiens, UniProt P42336).
T1 construct: made in house
Briefly: Biochemical PI3Kalpha (KinaseGlo luminescent kinase assay). To be noted: a different, separate measurement; read-out: PI3Ka IC50, different, separate measurement (footnote). As to the method: Test compounds were dissolved in DMSO (10 mM) and transferred into 1.4 mL flat bottom or V-shaped Matrix tubes carrying a unique 2D matrix chip by individual Novartis compound hubs. The numbers of these chips were distinctively linked to Novartis Pharma Numbers. The stock solutions were stored at −20° C. if not used immediately. For the test procedure the vials were defrosted and identified by a scanner whereby a working sheet was generated that guided the subsequent working steps.
Compounds were either manually diluted in DMSO for individual experiments (96 wells enabling 10 cpds at 8 (single points) concentrations) as described in or prepared as described below if tested for profiling in 384-wells. This format enabled the assay of maximally 40 individual test compounds at 8 concentrations (single points) including 4 reference compounds. The dilution protocol included the production of “pre-dilution plates”, “master plates” and “assay plates”.
96 polypropylene well plates were used as pre-dilution plates. A total of 4 pre-dilution plates were prepared including 10 test compounds each on the plate positions A1-A10, one standard compound at A11 and one DMSO control at A12. Programs have been written to run these pipetting steps on the HamiltonSTAR robots.
Identical “assay plates” were then prepared by pipetting 50 nL each of compound dilutions of the “master plates” into 384-well “assay plates”. The compounds were mixed with 4.5 μL of assays components plus 4.5 μL enzyme corresponding to a 1:181 dilution enabling the final concentration of 10, 3.0, 1.0, 0.3, 0.1, 0.03, 0.01 and 0.003 μM, respectively. The preparation of the “master plates” was handled by the Matrix PlateMate Plus robot and replication of “assay plates” by the HummingBird robot.
Catalytically active human PI3Kα, PI3Kβ, PI3Kδ, and mTOR were cloned, expressed and purified as described (Maira S M, Stauffer F, Brueggen J, Furet P, Schnell C, Fritsch C, Brachmann S, Chène P, de Pover A, Schoemaker K, Fabbro D, Gabriel D, Simonen M, Murphy L, Finan P, Sellers W, García-Echeverría C (2008), Mol Cancer Ther. 7:1851-63 and Maira S M, Pecchi S, Brueggen J, Huh K, Schnell C, Fritsch C, Nagel T, Wiesmann M, Brachmann S, Dorsch M, Chène P, Schoemaker K, De Pover A, Menezes D, Fabbro D, Sellers W, García-Echeverría C, Voliva C F (2011), Mol. Cancer Ther. accepted).
The luminescence-based ATP detection reagent KinaseGlo was obtained from Promega, (Cat. No. V6714, Lot No. 236161) through Catalys, Wallisellen, Switzerland. (L-alpha-phosphatidylinositol (PI), Liver, Bovine) were obtained from Avanti Polar Lipid (Cat. No. 840042C, Lot#LPI-274), Phosphatidylinositol-4,5-bisphosphate (PIP(4,5)2 (Avanti, Cat. No. 840046×) or L-α-phosphatidylinositol (PI) was obtained from Avanti Polar Lipid (Cat. No. 840042C, Lot#LPI-274). L-α-Phosphatidylserine (PS) was from Avanti Polar Lipid (Cat. No. 840032C), n-OctylGlucoside Avanti Polar Lipid (Cat. No. 10634425001). Luminescence is a well established readout to determine ATP concentrations and can thus be used to follow the activity of many kinases regardless of their substrate. The Kinase Glo Luminescent Kinase Assay (Promega, Madison/Wis., USA) is a homogeneous HTS method of measuring kinase activity by quantifying the amount of ATP remaining in solution following a kinase reaction.
50 nL of compound dilutions were dispensed onto black 384-well low volume Non Binding Styrene (NBS) plates (Costar Cat. No. NBS#3676) as described in section 8.2. L-α-phosphatidylinositol (PI), provided as 10 mg/ml solution in methanol, was transferred into a glass tube and dried under nitrogen beam. It was then resuspended in 3% OctylGlucoside by vortexing and stored at 4° C. 5 μL of a mix of PI/OG with the PI3Ka and Pi3Kb subtypes were added. Kinase reactions were started by addition of 5 μl of ATP-mix containing in a final volume 10 μL 10 mM TRIS-HCl pH 7.5, 3 mM MgCl2, 50 mM NaCl, 0.05% CHAPS, 1 mM DTT and 1 μM ATP, and occurred at room temperature.
With `C[C@H]1C(CC(C)(C)O)OC(=O)N1c1cc(-c2cnc(N)nc2C(F)(F)F)nc(N2CCOCC2)n1` (mixture of isomers) [Example 26, (4S,5R)- and (4S,5S)-3-(2′-amino-2-morpholino-4′-(trifluoromethyl)-[4,5′-bipyrimidin]-6-yl)-5-(2-hydroxy-2-methylpropyl)-4-methyloxazolidin-2-one], the IC50 was less than 3 nM.

For the molecule `C[C@H](O)CC1OC(=O)N(c2cc(-c3cnc(N)nc3C(F)(F)F)nc(N3CCOCC3)n2)[C@H]1C` (single isomer, unassigned) [Example 25], the IC50 was less than 3 nM.

Still in this experiment, the particulars now being: biochemical, 1 μM ATP, mean of n measurements.
Regarding `CC1(CO)COC(=O)N1c1cc(-c2cnc(N)nc2C(F)(F)F)nc(N2CCOCC2)n1` (racemic) [Example 3, 3-(2′-amino-2-morpholino-4′-(trifluoromethyl)-4,5′-bipyrimidin-6-yl)-4-(hydroxymethyl)-4-methyloxazolidin-2-one], the “PI3Ka/ IC50” value was determined as 0.021 umol I-1.

Take `C[C@H]1COC(=O)N1c1cc(-c2cnc(N)nc2C(F)(F)F)nc(N2CCOCC2)n1` [Example 1, (S)-3-(2′-Amino-2-morpholin-4-yl-4′-trifluoromethyl-[4,5′]bipyrimidinyl-6-yl)-4-methyl-oxazolidin-2-one]: the “PI3Ka/ IC50” value came to 0.008 umol I-1.

As to `CC1(C)OC(=O)N(c2cc(-c3cnc(N)nc3C(F)(F)F)nc(N3CCOCC3)n2)[C@H]1CO` [Example 2, (S)-3-(2′-Amino-2-morpholin-4-yl-4′-trifluoromethyl-[4,5′]bipyrimidinyl-6-yl)-4-hydroxymethyl-5,5-dimethyl-oxazolidin-2-one], the “PI3Ka/ IC50” value is 0.023 umol I-1.

With `Nc1ncc(-c2cc(N3C(=O)O[C@H]4CCCC[C@@H]43)nc(N3CCOCC3)n2)c(C(F)(F)F)n1` [Example 4, (3aS,7aS)-3-(2′-Amino-2-morpholin-4-yl-4′-trifluoromethyl-[4,5′]bipyrimidinyl-6-yl)-hexahydro-benzooxazol-2-one], the “PI3Ka/ IC50” value was found to be 0.014 umol I-1.

As to `COC[C@H]1COC(=O)N1c1cc(-c2cnc(N)nc2C(F)(F)F)nc(N2CCOCC2)n1` [Example 5, (S)-3-(2′-Amino-2-morpholin-4-yl-4′-trifluoromethyl-[4,5′]bipyrimidinyl-6-yl)-4-methoxymethyl-oxazolidin-2-one], the “PI3Ka/ IC50” value stood at 0.011 umol I-1.

`C[C@@H]1OC(=O)N(c2cc(-c3cnc(N)nc3C(F)(F)F)nc(N3CCOCC3)n2)[C@H]1CO` [Example 6]: the “PI3Ka/ IC50” value is 0.013 umol I-1.

As for `[2H]C1([2H])OC([2H])([2H])C([2H])([2H])N(c2nc(-c3cnc(N)nc3C(F)(F)F)cc(N3C(=O)O[C@H](C)[C@@H]3CO)n2)C1([2H])[2H]` [Example 8], the “PI3Ka/ IC50” value worked out at 0.013 umol I-1.

Regarding `Nc1ncc(-c2cc(N3C(=O)OC[C@@H]3CCO)nc(N3CCOCC3)n2)c(C(F)(F)F)n1` [Example 9, (S)-3-(2′-Amino-2-morpholin-4-yl-4′-trifluoromethyl-[4,5′]bipyrimidinyl-6-yl)-4-(2-hydroxy-ethyl)-oxazolidin-2-one], the “PI3Ka/ IC50” value was 0.384 umol I-1.

Staying with this experiment, now noted: biochemical, 1 μM ATP, mean of n measurements; read-out: PI3Ka/ IC50.
Regarding `C[C@H]1C(CC(C)(C)O)OC(=O)N1c1cc(-c2cnc(N)nc2C(F)(F)F)nc(N2CCOCC2)n1` (mixture of isomers) [Example 26, (4S,5R)- and (4S,5S)-3-(2′-amino-2-morpholino-4′-(trifluoromethyl)-[4,5′-bipyrimidin]-6-yl)-5-(2-hydroxy-2-methylpropyl)-4-methyloxazolidin-2-one], the IC50 turned out to be 5 nM.

On to `Nc1ncc(-c2cc(N3C(=O)O[C@@H]4[C@@H](O)CC[C@@H]43)nc(N3CCOCC3)n2)c(C(F)(F)F)n1` (racemic) [Example 22, (3aR*,6R*,6aR*)-3-(2′-Amino-2-morpholino-4′-(trifluoromethyl)-[4,5′-bipyrimidin]-6-yl)-6-hydroxyhexahydro-2H-cyclopenta[d]oxazol-2-one], for which the IC50 turned out to be 6 nM.

Turning to `Nc1ncc(-c2cc(N3C(=O)OC4C(O)CCC43)nc(N3CCOCC3)n2)c(C(F)(F)F)n1` (single isomer, unassigned) [Example 22A], the IC50 amounted to 7 nM.

As for `Nc1ncc(-c2cc(N3C(=O)OC4C(O)CCC43)nc(N3CCOCC3)n2)c(C(F)(F)F)n1` (single isomer, unassigned) [Example 22B], the IC50 was 26 nM.

`C[C@@H](O)C[C@H]1OC(=O)N(c2cc(-c3cnc(N)nc3C(F)(F)F)nc(N3CCOCC3)n2)[C@H]1C` (single isomer, unassigned) [Example 24]: the IC50 worked out at 5 nM.

For the molecule `C[C@H](O)CC1OC(=O)N(c2cc(-c3cnc(N)nc3C(F)(F)F)nc(N3CCOCC3)n2)[C@H]1C` (single isomer, unassigned) [Example 25], the IC50 is 5 nM.
